From patent US20040005291A1, “Methods for regulating co-stimulatory molecule expression with reactive oxygen” (priority 2001, published 2004)

Legend:
[1] = system: Fas and B7; assay: Fas and B7 levels in cells in the presence of 2-deoxyglucose; type: cell-based; conditions: cells where glucose cannot bind to its receptor
Procedure: […] Cells were then harvested, stained with fluorescent labeled anti-Fas, or with isotype controls as indicated. […] Data were analyzed using Becton Dickinson CellQuest software.

[2] = system: B7.2 on PC12 neural cell line; conditions: PC12 cells, 0.25 mM H202, 48 hours
Procedure: (§1) The cells were then exposed to 200 mW of low frequency microwaves for 30 minutes, 1 hour, or 3 hours. Cells were then stained with DCF-DA (Molecular Probes, Inc. Eugene, Oreg.) as an indicator of relative levels of H202. Cells were also stained with fluorescent labeled antibodies to human B7.2 (Pharmingen, Inc.), versus fluorescent labeled, isotype matched control antibodies, upper panels, left and right, respectively. Indicated levels represent the ratio of specific B7.2 stain over the fluorescently labeled isotype control for each condition. Replicate samples, microwaved for the indicated time periods, were subsequently cultured for an additional 21 hours and stained for H202 and B7.2, as indicated, lower panels. Cells were analyzed flow cytometrically using a Coulter Excel Flow Cytometer. Data were analyzed using Becton Dickinson CellQuest software.
(§2) Methods: Human myelocyte cells U937, HL60, PC12, and PC12Trk cells were cultured in the presence of subcytotoxic doses (0.25 mM) of H202 for 48 hours, harvested and stained with isotype controls or fluorescent labeled anti-B7.2 as described in Example 1. Cells were analyzed flow cytometrically using a Coulter Excel Flow Cytometer. Data were analyzed using Becton Dickinson CellQuest software.

[3] = system: B7.2 on PC12Trk neural cell line; conditions: PC12Trk cells, 0.25 mM H202, 48 hours
Procedure: as §1, §2

[4] = system: B7.2 on HL60 cells; conditions: 0.25 mM H202, 48 hours
Procedure: as §1, §2

[5] = system: B7.2 on U937 cells; conditions: 0.25 mM H202, 48 hours
Procedure: as §1, §2

[6] = system: B7 on MCF7 cells; conditions: H2O2 at subcytotoxic levels
Source text: We added H2O2 (at subcytotoxic levels) directly to cells (MCF7, HL60, U937, and neural cells PC12 and PC12Trk^15) in culture to see if this caused changes in B7 expression.

[7] = system: Fas on keratinocyte cell line; conditions: mouse keratinocyte cell line, 0.25 mM H2O2, 12 or 24 hours
Procedure: (§3) A mouse keratinocyte cell line was incubated with or without 0.25 mM Hydrogen Peroxide (H2O2) for 12 or 24 hours. Then the level of B7.1 and Fas were evaluated. The data is attached as FIGS. 3A and 3B.

[8] = system: B7.1 on keratinocyte cell line; conditions: mouse keratinocyte cell line, 0.25 mM H2O2, 12 or 24 hours
Procedure: as §3

[9] = system: reactive oxygen in neural stem cells; conditions: DCF-DA stain, FIG. 4
Procedure: FIG. 4 is a graph depicting the effects of ethanol in neural stem cells. The cells were stained with DCF-DA.
Methods: Neural stem cells were treated as described above.

[10] = system: co-stimulatory molecules in neural stem cells
[11] = system: Fas on HL60 cells; assay: Cell surface Fas expression, flow cytometry with anti-Fas; type: cell-based
Procedure: Methods: HL60 cells were incubated with insulin or under in conditions of low glucose overnight. Cells were then harvested, stained with fluorescent labeled anti-Fas, or with isotype controls as indicated. […] Data were analyzed using Becton Dickinson CellQuest software.

O=CC[C@@H](O)[C@H](O)[C@H](O)CO [2-deoxyglucose]
levels of these molecules (Fas and B7) [1]: substantial reductions

OO [H2O2, Hydrogen Peroxide]
cell surface expression of B7.2 [2]: increased cell surface expression of B7.2 | cell surface expression of B7.2 [3]: increased cell surface expression of B7.2 | cell surface expression of B7.2 [4]: increased cell surface expression of B7.2 | cell surface expression of B7.2 [5]: increased cell surface expression of B7.2 | B7 expression [6]: increase in B7 | level of expression of Fas [7]: increases | level of expression of B7.1 [8]: increases

CCO [alcohol, ethanol]
reactive oxygen [9]: increase reactive oxygen | induction of co-stimulatory molecules [10]: increased induction of co-stimulatory molecules

insulin
cell surface Fas expression ([11]; HL60 cells incubated with insulin overnight): loss of cell surface Fas expression | reduction of levels of Fas ([11]; addition of insulin to cells in culture): ten-fold
